Test system: Lewis Lung (3LL) murine carcinoma
Assay type: in vivo, Female mice C57BL/6N
Description: The "in vivo" testing was performed against the Lewis Lung (3LL) murine carcinoma according to the following protocol.
Female mice C57BL/6N were inoculated intrafootpad with tumor fragments at day 0. At day 11 the mice were anesthetized and their tumors removed surgically proximal to the popliteale limph nodes. Animals were treated intraperitoneally with the compounds of the invention from one day after surgery until the end of the experiment, day 22 (post-surgery treatment at days 12-15, 18-22). All the compounds were suspended in 0.5% methylcellulose. The mean number of the pulmonary metastases and the mean weight thereof were determined. The toxicity of the compounds of the invention at the administered dosage was also checked, as number of deaths/total no. of treated mice by the end of the experiment.

For c1cncc(C(c2c[nH]c3ccccc23)c2c[nH]c3ccccc23)c1 [example 1, 3-[bis(indol-3-yl)methyl]pyridine], which Toxicity (mouse, in vivo, ip, 200 mg/kg/day) is on record?
Its Toxicity is 0/9.

What about the “Mean weight (mg) of metastases (S.D.)” value (pulmonary metastases, 200 mg/kg/day intraperitoneally, post-surgery treatment day 12-15, 18-22 after tumor injection, control 197.6 (55.0)) of the same molecule?
The value was 99.2 (63.5) mg.

What about the “Mean No. of metastases (S.D.)” value (pulmonary metastases, 200 mg/kg/day intraperitoneally, post-surgery treatment day 12-15, 18-22 after tumor injection, suspended in 0.5% methylcellulose, control 65.9 (11.7)) of the same molecule?
The value was 31.4 (14.0).
